Key:
[1] = tested on: Primary human fibroblasts from a patient with propionic acidemia (Coriell #GM00371); assay: Cell viability (cell Titer-Glo) of propionic acidemia fibroblasts; format: cell-based; conditions: FIG. 1
Procedure: (§1) Primary human fibroblasts from a patient with propionic acidemia (Coriell #GM00371) were plated in complete media (EMEM, 15% FBS) in a 96-well plate at 10,000 cells/well and incubated overnight at 37° C. at 5% CO2. Compounds were serially diluted initially in DMSO then into serum-free EMEM media. The cells were then washed with D-PBS before addition of the media containing the diluted compound, and were then incubated at 37° C. at 5% CO2 overnight.
Cell viability was also determined with cell Titer-Glo reagent (Promega) by addition of equal volumes of D-PBS and Cell Titer-Glo reagent to cell wells and following manufacturer's recommendations for detection of luminescence signal.

[2] = tested on: propionyl carnitine; assay: Propionyl carnitine in conditioned media of propionic acidemia fibroblasts; format: cell-based, human; conditions: 24 hours, increasing concentrations, FIG. 1
Procedure: could inhibit levels of the downstream metabolite propionyl carnitine, which is found to be elevated in patients with propionic acidemia, by analyzing propionyl carnitine levels in conditioned media in human fibroblasts from a patient with propionic acidemia treated with a dose response of the compound of the disclosure.
as §1
The conditioned media was removed from cells after 24 hours of compound treatment and was diluted 2× with D3-propionyl carnitine internal standard diluted in MS-grade methanol. Plates were sealed and samples were frozen at −80DGC for more than 30 minutes, followed by thawing at room temperature and centrifugation for 10 minutes at 4000 rpm. The samples were then analyzed for propionyl carnitine by LC-LC/MS using TSQ Vantage using a Kinetex 2.6 μm Biphenyl 2.1×50 mm column with Mobile Phase A of 95% (0.1% Formic acid in Water)+5% Water and Mobile Phase B of 95% McOH+5% (0.1% Formic acid in Water).

[3] = tested on: branched chain amino acids (BCAA) in plasma; assay: Repetitive treatment with BCAT2 inhibitor compound: plasma amino acids; format: in vivo; conditions: mice
Procedure: Male, C57Black/6J mice (6-7 weeks, Jackson Laboratories, Bar Harbor, Me.) were used in all in vivo experiments. Animals were maintained on a 12 hour light/dark reverse cycle in a temperature- and humidity-controlled room with access to food and water ad libitum. Before the experiment, animals underwent a 7-day acclimation period.
All biological samples were stored in −80° C. until analysis. […] In particular, 20 μL of mouse plasma were precipitated with 180 μL acetonitrile containing 5 μg/ml D8-Valine. Samples were vortexed vigorously and centrifuged to remove precipitated protein. 2 μL of supernatant was injected on a Phenomenex Gemini C18 column (4.6 mm×150 mm, 5 μm particle size) for separation under a linear gradient from 2% ACN to 50% ACN in 10 minutes followed by a 7 minute equilibration with 2% ACN.
Animals were grouped based on pair matched body weight and received either vehicle (0.5% HPMC K100+0.1 Tween 80, pH=10.0) or a daily dose of compound (200 mg/kg, PO) for 9 days. From day 1 to day 5, all animals were provided with normal diet. […] On day 9, blood, bladder urine as well as tissue samples (liver, brain, heart, muscle and kidney) were harvested 4 hours after the last dose. Three mice in each treatment/diet group were retained for a 3-day recovery phase observation. On day 12, blood, bladder urine as well as tissue samples (liver, brain, heart, muscle and kidney) were harvested. During the entire study course (day 1 to day 12), mice were able to access food and water freely. Body weights were measured daily and any abnormal behavior for toxicity signs was recorded.

[4] = Repetitive treatment: body weight and toxicity signs; format: in vivo; conditions: mice, 200 mg/kg PO once a day for 9 days and 3-day recovery
Procedure: […]. Animals were maintained on a 12 hour light/dark reverse cycle in a temperature- and humidity-controlled room with access to food and water ad libitum. Before the experiment, animals underwent a 7-day acclimation period. All procedures involving mice were approved by the Institutional Animal Care and Use Committee of the University of Arizona and were conducted in accordance with Principles of Laboratory Animal Care (National Institutes of Health Publication 85-23, revised in 1985).
Animals were grouped based on pair matched body weight and received either vehicle (0.5% HPMC K100+0.1 Tween 80, pH=10.0) or a daily dose of compound (200 mg/kg, PO) for 9 days. From day 1 to day 5, all animals were provided with normal diet. On day 6, the diet was switched to a precursor enriched chow (700% isoleucine, valine and threonine enriched, TD. 140829; Envigo) for half of the animals; the other half were still fed with normal diet. On day 9, blood, bladder urine as well as tissue samples (liver, brain, heart, muscle and kidney) were harvested 4 hours after the last dose. Three mice in each treatment/diet group were retained for a 3-day recovery phase observation. On day 12, blood, bladder urine as well as tissue samples (liver, brain, heart, muscle and kidney) were harvested. […] Body weights were measured daily and any abnormal behavior for toxicity signs was recorded.

[5] = 200 mg/kg PO for 9 days, normal diet, FIG. 4A
[6] = 200 mg/kg PO, Day 9, precursor-enriched diet, FIG. 4B

| Structure (SMILES) | impact on cell viability [1] | propionyl carnitine levels [2] | plasma level of Leu [3, 5] | plasma level of Ser [3, 5] | plasma level of Val [3, 5] | levels of BCAAs in plasma, compound vs vehicle [3, 6] | plasma level of leucine [3, 6] | abnormal behaviors reflecting toxicities [4] | body weight ([4]; FIG. 3A) |
| --- | --- | --- | --- | --- | --- | --- | --- | --- | --- |
| CNC(=O)c1ccc2c(c1)nc(-c1ccccn1)n2C1CCCC(NC(=O)c2ccc(Br)s2)C1 (stereo not drawn) [drawing 84] | little impact | inhibited |  |  |  |  |  |  |  |
| CNC(=O)c1ccc2c(c1)nc(-c1ccccn1)n2C1CCCC(NC(=O)c2ccc(Br)s2)C1 (stereo not drawn) [drawing 85] |  |  | significantly increased | not | significantly increased | no significant changes | slight but significant decrease | no obvious abnormal behaviors reflecting toxicities | no significant loss |
